Experiments:
acetate kinase = acetate kinase (Escherichia coli, UniProt P0A6A3); conditions: read-out: Km value of acetate kinase for acetyl phosphate; cited from earlier work
E. coli S30 extract [1] = experiment: Cell-free protein synthesis, PEP system (phosphoenol pyruvate / pyruvate kinase ATP regeneration); format: biochemical, Escherichia coli
Experimental: (§1) Throughout the examples to follow, two standard methods were used for cell-free protein synthesis. The first uses phosphoenol pyruvate (PEP) and pyruvate kinase to regenerate ATP from ADP. This is termed the PEP system. The second uses pyruvate and pyruvate oxidase to regenerate ATP. This is called the pyruvate system.
57 mM Hepes-KOH (pH 8.2), 1.2 mM ATP, 0.85 mM each of GTP, UTP and CTP, 1 mM DTT, 0.64 mM cAMP, 200 mM potassium glutamate, 80 mM NH4(OAc), 15 mM Mg(OAc)2, […] folinic acid, 6.7 μg/ml plasmid, 33 μg/ml T7 RNA polymerase, 500 μM each of 20 unlabeled amino acids, [^3H] leucine (0.27 GBq/mmol), 2% PEG 8000, 20 mM PEP (phosphoenol pyruvate), and 0.24 volumes of S30 extract. […]
(§2) Reactions were conducted for given time periods in a water bath set at 37° C. The amount of synthesized protein was estimated from the measured cold TCA-insoluble radioactivities as described (Kim et al., supra.) Radioactivities of samples were measured in a liquid scintillation counter (Beckman). […]
(§3) The amount of synthesized protein was estimated from the measured TCA-insoluble radioactivities as described earlier (Kim et al., 1996a, supra.) Radioactivities of samples were measured in a liquid scintillation counter (Beckman LS3801). […]

E. coli S30 extract [2] = experiment: Cell-free protein synthesis, pyruvate system (pyruvate / pyruvate oxidase ATP regeneration); format: biochemical, Escherichia coli
Experimental: as §1
T7 RNA polymerase was prepared from the culture of E. coli strain BL21 (pAR1219) according to the slightly modified procedures of Davanloo et al. (1984) Proc. Natl. Acad. Sci. U.S.A. 81: 2035–2039. S30 extract was prepared from wild type E. coli K12 (strain A19) according to the procedures reported earlier (Kim et al., supra.). The standard reaction mixture for the pyruvate system is nearly identical. […]
as §2, §3

[3] = molecular target: T1, phosphoenol pyruvate synthetase (pps) (Escherichia coli, UniProt P23538); experiment: Aspartic acid/asparagine formation in the cell-free reaction mixture; format: biochemical, E. coli; conditions: 2.7 mM oxalic acid; FIG. 6
T1 construct: endogenous in cells; host or cells: E. coli K12 strain A19, S30 cell extract
T1 sequence (P23538 whole entry): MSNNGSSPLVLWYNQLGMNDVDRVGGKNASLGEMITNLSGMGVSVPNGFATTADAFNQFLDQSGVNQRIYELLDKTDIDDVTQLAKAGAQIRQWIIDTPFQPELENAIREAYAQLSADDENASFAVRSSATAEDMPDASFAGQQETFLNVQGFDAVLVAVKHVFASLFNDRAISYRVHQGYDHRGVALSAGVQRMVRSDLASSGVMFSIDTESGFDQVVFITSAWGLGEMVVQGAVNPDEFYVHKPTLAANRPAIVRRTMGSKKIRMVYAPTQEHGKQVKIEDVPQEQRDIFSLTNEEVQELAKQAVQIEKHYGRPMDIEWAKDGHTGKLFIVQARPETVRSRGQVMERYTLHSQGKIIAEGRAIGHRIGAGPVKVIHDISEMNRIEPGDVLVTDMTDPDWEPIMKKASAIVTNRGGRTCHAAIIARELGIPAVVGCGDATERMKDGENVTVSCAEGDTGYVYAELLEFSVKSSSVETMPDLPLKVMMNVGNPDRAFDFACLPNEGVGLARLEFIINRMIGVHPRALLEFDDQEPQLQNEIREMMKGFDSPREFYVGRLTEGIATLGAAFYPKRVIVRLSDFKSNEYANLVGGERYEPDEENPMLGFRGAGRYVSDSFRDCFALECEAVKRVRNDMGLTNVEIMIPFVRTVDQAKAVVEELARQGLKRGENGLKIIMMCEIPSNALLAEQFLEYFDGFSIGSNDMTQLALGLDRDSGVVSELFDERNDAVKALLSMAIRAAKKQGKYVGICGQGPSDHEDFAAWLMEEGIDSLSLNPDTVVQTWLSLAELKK
Experimental: (§4) The observations indicated in the previous examples prompted the measurement of individual amino acid concentrations during the course of a protein synthesis reaction. In this case, a pyruvate-driven reaction of 900 μl was started. Samples of 100 μl were taken each hour, diluted 1:1 with cold water and deproteinized by adding 200 μl of cold 10% TCA (trichloroacetic acid) solution. After centrifugation the supernatant was analyzed using a Beckman 1600 amino acid analyzer. […] This is a potentially serious source of reaction inefficiency. In the second case, the depletion of the three amino acids is most likely the reason that prolonging the reaction required amino acids addition.
The conversion of pyruvate to PEP is catalyzed by the enzyme, phosphoenol pyruvate synthetase (pps). Oxalic acid has been reported to inhibit pps. To test to see if the pps reaction is indeed responsible for aspartic acid and asparagine synthesis and to test if these reactions are reducing the protein yield, 2.7 mM oxalic acid was added to both the pyruvate system and the PEP system. […] With the pyruvate system, less pyruvate and ATP are being lost to amino acid formation. In the case with PEP as the energy source, pyruvate is the direct product after PEP transfers its phosphate to ADP. That pyruvate will then be converted back into PEP by pps, but at the cost of two ATP's for each new PEP molecule. […]

arginine decarboxylase = molecular target: T2, arginine decarboxylase (Escherichia coli, UniProt P21170); experiment: Arginine depletion in the cell-free reaction mixture (amino acid analysis); format: biochemical, E. coli; parameters: dose or concentration left out as unconfirmed; conditions: spermidine; FIG. 5
T2 construct: endogenous in cells; host or cells: E. coli K12 strain A19, S30 cell extract
T2 sequence (P21170 whole entry): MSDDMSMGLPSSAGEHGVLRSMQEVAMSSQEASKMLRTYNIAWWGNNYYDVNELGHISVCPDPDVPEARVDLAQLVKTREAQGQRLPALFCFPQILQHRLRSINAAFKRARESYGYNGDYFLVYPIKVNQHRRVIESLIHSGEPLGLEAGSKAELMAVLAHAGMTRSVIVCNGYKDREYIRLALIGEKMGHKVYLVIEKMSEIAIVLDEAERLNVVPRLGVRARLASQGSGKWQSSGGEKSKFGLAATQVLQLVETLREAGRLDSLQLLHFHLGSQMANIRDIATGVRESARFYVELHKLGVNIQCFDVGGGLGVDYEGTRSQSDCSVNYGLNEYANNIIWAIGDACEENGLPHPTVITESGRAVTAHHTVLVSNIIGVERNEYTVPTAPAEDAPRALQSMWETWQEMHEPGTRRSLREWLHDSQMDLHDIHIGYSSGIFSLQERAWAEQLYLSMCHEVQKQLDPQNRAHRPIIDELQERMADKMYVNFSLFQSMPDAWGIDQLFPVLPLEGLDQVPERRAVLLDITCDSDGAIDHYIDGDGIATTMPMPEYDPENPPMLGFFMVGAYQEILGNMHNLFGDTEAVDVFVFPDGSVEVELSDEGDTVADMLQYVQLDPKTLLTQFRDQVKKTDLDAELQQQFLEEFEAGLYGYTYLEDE
Experimental: as §4
The data shown in FIGS. 3 and 4 indicate that the degradation of three amino acids, arginine, cysteine and tryptophan is seriously limiting the efficiency and duration of the protein synthesis reaction. […] In the case of arginine, one possible cause is the action of arginine decarboxylase. This is the first enzyme in the pathway for the conversion of arginine to putrescine and spermidine, cationic molecules important for normal bacterial physiology. Putrescine and spermidine can also be produced from ornithine, but arginine is preferred when it is available. (See FIG. 10) Arginine decarboxylase is known to be feedback inhibited by spermidine. […]

acetate kinase, sequence (P0A6A3 whole entry): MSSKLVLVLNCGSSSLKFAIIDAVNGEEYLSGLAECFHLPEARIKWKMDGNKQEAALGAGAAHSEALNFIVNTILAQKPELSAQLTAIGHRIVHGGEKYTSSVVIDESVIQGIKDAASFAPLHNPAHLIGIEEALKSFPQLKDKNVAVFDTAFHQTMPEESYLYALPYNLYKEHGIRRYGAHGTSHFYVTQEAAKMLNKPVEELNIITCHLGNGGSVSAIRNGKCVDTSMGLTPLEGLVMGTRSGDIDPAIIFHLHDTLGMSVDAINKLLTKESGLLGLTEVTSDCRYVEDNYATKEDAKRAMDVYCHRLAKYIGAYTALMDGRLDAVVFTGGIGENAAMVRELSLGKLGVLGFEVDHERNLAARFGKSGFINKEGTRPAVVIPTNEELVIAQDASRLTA

CC(=O)OP(=O)(O)O [acetyl phosphate]
Km (acetate kinase): 200 µM
support of protein synthesis as energy source (E. coli S30 extract [1]; energy source in place of PEP): as efficiently as PEP

O=C(O)C(=O)O [oxalic acid]
protein yield (E. coli S30 extract [1]; 2.7 mM oxalic acid, PEP system, FIG. 8): increases the protein yield
protein yield (E. coli S30 extract [2]; 2.7 mM oxalic acid, pyruvate system, FIG. 7): increases the protein yield
formation of aspartic acid and asparagine [3]: reduced

NCCCCNCCCN [spermidine]
arginine depletion (arginine decarboxylase): significantly slow arginine depletion

catalase
effect on rate or duration of protein synthesis (E. coli S30 extract [2]; exogenous catalase added to the reaction mixture): did not affect either the rate or duration of protein synthesis
